Experiments:
Assay in all cases: Herbicidal effect test by soil treatment
Type in all cases: in vivo
[1] = tested on: annual sedge (Cyperus microiria); settings: three weeks after spraying
Source text: (§1) In a plastic box of 15 cm length, 22 cm width and 6 cm depth, there was placed a sterilized dilvial soil, and seeds of barnyardgrass (Echinochloa crusgalli), large crabgrass (Digitaria adscendens), annual sedge (Cyperus microiria), black nightshade (Solanum nigrum L.), hairly galinosoga (Galinsoga ciliat), rorippa ssp. (Rorippa atrovirens), rice (Oryza sativa), corn (Zea mays), wheat (Triticum aestivum), soybean (Glysine max) and cotton (Gossypium herbaceum) were sown mixedly. After covering soil to about 1 cm over the seeds, herbicides were sprayed evenly on the soil surface to predetermined proportions of the active ingredient In spraying, the wettable powder, emulsifiable concentrate, dry flowable or flowable in the above formulation examples were diluted with water and sprayed over the entire surface by means of a small sprayer. Three weeks after spraying, the herbicidal effect on crop plants including rice, corn, wheat, soybean, cotton and various kinds of weeds were examined according to the judgement criteria shown below. Judgement criteria
(§2) The above growth control rates are determined by measuring the top fresh weights of the treated plants and those of the non-treated plants, and culculated from the following formula: [formula]

[2] = tested on: rorippa ssp. (Rorippa atrovirens); settings: three weeks after spraying
Source text: as §1, §2

[3] = tested on: hairly galinosoga (Galinsoga ciliat); settings: three weeks after spraying
Source text: as §1, §2

[4] = tested on: large crabgrass (Digitaria adscendens); settings: three weeks after spraying
Source text: as §1, §2

soybean (Glysine max) = settings: crop plant, three weeks after spraying
Source text: as §1, §2

[5] = tested on: cotton (Gossypium herbaceum); settings: crop plant, three weeks after spraying
Source text: as §1, §2

[6] = tested on: black nightshade (Solanum nigrum L.); settings: three weeks after spraying
Source text: as §1, §2

corn (Zea mays) = settings: crop plant, three weeks after spraying
Source text: as §1, §2

[7] = tested on: wheat (Triticum aestivum); settings: crop plant, three weeks after spraying
Source text: as §1, §2

rice (Oryza sativa) = settings: crop plant, three weeks after spraying
Source text: as §1, §2

Compound: C#CCN1C(=O)COc2ccc(N3C(=O)CC(C(F)(F)F)CC3=O)cc21 [1-24]
- herbicidal effect, K (Cyperus microiria) ([1]; application amount 0.4 g/a): 5 (Growth control,rates of more than 90% (almost completely withered))
- herbicidal effect, K (Cyperus microiria) ([1]; application amount 0.8 g/a): 5 (Growth control,rates of more than 90% (almost completely withered))
- herbicidal effect, K (Cyperus microiria) ([1]; application amount 1.6 g/a): 5 (Growth control,rates of more than 90% (almost completely withered))
- herbicidal effect, I (Rorippa indica) ([2]; application amount 0.4 g/a): 5 (Growth control,rates of more than 90% (almost completely withered))
- herbicidal effect, I (Rorippa indica) ([2]; application amount 0.8 g/a): 5 (Growth control,rates of more than 90% (almost completely withered))
- herbicidal effect, I (Rorippa indica) ([2]; application amount 1.6 g/a): 5 (Growth control,rates of more than 90% (almost completely withered))
- herbicidal effect, D (Galinsoga ciliat) ([3]; application amount 0.4 g/a): 5 (Growth control,rates of more than 90% (almost completely withered))
- herbicidal effect, D (Galinsoga ciliat) ([3]; application amount 0.8 g/a): 5 (Growth control,rates of more than 90% (almost completely withered))
- herbicidal effect, D (Galinsoga ciliat) ([3]; application amount 1.6 g/a): 5 (Growth control,rates of more than 90% (almost completely withered))
- herbicidal effect, M (Digitaria adscendens) ([4]; application amount 0.4 g/a): 5 (Growth control,rates of more than 90% (almost completely withered))
- herbicidal effect, M (Digitaria adscendens) ([4]; application amount 0.8 g/a): 5 (Growth control,rates of more than 90% (almost completely withered))
- herbicidal effect, M (Digitaria adscendens) ([4]; application amount 1.6 g/a): 5 (Growth control,rates of more than 90% (almost completely withered))
- herbicidal effect, S (Glysine max) (soybean (Glysine max); application amount 0.4 g/a): 0 (Growth control rates of less than 5% (substantially no effect))
- herbicidal effect, S (Glysine max) (soybean (Glysine max); application amount 0.8 g/a): 0 (Growth control rates of less than 5% (substantially no effect))
- herbicidal effect, S (Glysine max) (soybean (Glysine max); application amount 1.6 g/a): 1 (Growth control rates of 5 to 20%)
- herbicidal effect, C (Gossypium herbaceum) ([5]; application amount 0.4 g/a): 0 (Growth control rates of less than 5% (substantially no effect))
- herbicidal effect, C (Gossypium herbaceum) ([5]; application amount 0.8 g/a): 1 (Growth control rates of 5 to 20%)
- herbicidal effect, C (Gossypium herbaceum) ([5]; application amount 1.6 g/a): 3 (Growth control rates of 40 to 70%)
- herbicidal effect, H (Solanum nigrum L.) ([6]; application amount 0.4 g/a): 5 (Growth control,rates of more than 90% (almost completely withered))
- herbicidal effect, H (Solanum nigrum L.) ([6]; application amount 0.8 g/a): 5 (Growth control,rates of more than 90% (almost completely withered))
- herbicidal effect, H (Solanum nigrum L.) ([6]; application amount 1.6 g/a): 5 (Growth control,rates of more than 90% (almost completely withered))
- herbicidal effect, T (Zea mays) (corn (Zea mays); application amount 0.4 g/a): 0 (Growth control rates of less than 5% (substantially no effect))
- herbicidal effect, T (Zea mays) (corn (Zea mays); application amount 0.8 g/a): 2 (Growth control rates of 20 to 40%)
- herbicidal effect, T (Zea mays) (corn (Zea mays); application amount 1.6 g/a): 4 (Growth control rates of 70 to 90%)
- herbicidal effect, W (Triticum vulgare) ([7]; application amount 0.4 g/a): 0 (Growth control rates of less than 5% (substantially no effect))
- herbicidal effect, W (Triticum vulgare) ([7]; application amount 0.8 g/a): 1 (Growth control rates of 5 to 20%)
- herbicidal effect, W (Triticum vulgare) ([7]; application amount 1.6 g/a): 4 (Growth control rates of 70 to 90%)
- herbicidal effect, R (Oryza sativa) (rice (Oryza sativa); application amount 0.4 g/a): 1 (Growth control rates of 5 to 20%)
- herbicidal effect, R (Oryza sativa) (rice (Oryza sativa); application amount 0.8 g/a): 4 (Growth control rates of 70 to 90%)
- herbicidal effect, R (Oryza sativa) (rice (Oryza sativa); application amount 1.6 g/a): 5 (Growth control,rates of more than 90% (almost completely withered))

Compound: CCOC(=O)c1cc(N2C(=O)CC(c3ccccc3)CC2=O)c(F)cc1Cl [1-29]
- herbicidal effect, K (Cyperus microiria) ([1]; application amount 1.6 g/a): 5 (Growth control,rates of more than 90% (almost completely withered))
- herbicidal effect, K (Cyperus microiria) ([1]; application amount 3.2 g/a): 5 (Growth control,rates of more than 90% (almost completely withered))
- herbicidal effect, K (Cyperus microiria) ([1]; application amount 6.3 g/a): 5 (Growth control,rates of more than 90% (almost completely withered))
- herbicidal effect, I (Rorippa indica) ([2]; application amount 1.6 g/a): 5 (Growth control,rates of more than 90% (almost completely withered))
- herbicidal effect, I (Rorippa indica) ([2]; application amount 3.2 g/a): 5 (Growth control,rates of more than 90% (almost completely withered))
- herbicidal effect, I (Rorippa indica) ([2]; application amount 6.3 g/a): 5 (Growth control,rates of more than 90% (almost completely withered))
- herbicidal effect, D (Galinsoga ciliat) ([3]; application amount 1.6 g/a): 5 (Growth control,rates of more than 90% (almost completely withered))
- herbicidal effect, D (Galinsoga ciliat) ([3]; application amount 3.2 g/a): 5 (Growth control,rates of more than 90% (almost completely withered))
- herbicidal effect, D (Galinsoga ciliat) ([3]; application amount 6.3 g/a): 5 (Growth control,rates of more than 90% (almost completely withered))
- herbicidal effect, S (Glysine max) (soybean (Glysine max); application amount 1.6 g/a): 0 (Growth control rates of less than 5% (substantially no effect))
- herbicidal effect, S (Glysine max) (soybean (Glysine max); application amount 3.2 g/a): 0 (Growth control rates of less than 5% (substantially no effect))
- herbicidal effect, S (Glysine max) (soybean (Glysine max); application amount 6.3 g/a): 0 (Growth control rates of less than 5% (substantially no effect))
- herbicidal effect, C (Gossypium herbaceum) ([5]; application amount 1.6 g/a): 0 (Growth control rates of less than 5% (substantially no effect))
- herbicidal effect, C (Gossypium herbaceum) ([5]; application amount 3.2 g/a): 0 (Growth control rates of less than 5% (substantially no effect))
- herbicidal effect, C (Gossypium herbaceum) ([5]; application amount 6.3 g/a): 0 (Growth control rates of less than 5% (substantially no effect))
- herbicidal effect, H (Solanum nigrum L.) ([6]; application amount 1.6 g/a): 5 (Growth control,rates of more than 90% (almost completely withered))
- herbicidal effect, H (Solanum nigrum L.) ([6]; application amount 3.2 g/a): 5 (Growth control,rates of more than 90% (almost completely withered))
- herbicidal effect, H (Solanum nigrum L.) ([6]; application amount 6.3 g/a): 5 (Growth control,rates of more than 90% (almost completely withered))
- herbicidal effect, T (Zea mays) (corn (Zea mays); application amount 1.6 g/a): 0 (Growth control rates of less than 5% (substantially no effect))
- herbicidal effect, T (Zea mays) (corn (Zea mays); application amount 3.2 g/a): 0 (Growth control rates of less than 5% (substantially no effect))
- herbicidal effect, T (Zea mays) (corn (Zea mays); application amount 6.3 g/a): 0 (Growth control rates of less than 5% (substantially no effect))
- herbicidal effect, W (Triticum vulgare) ([7]; application amount 1.6 g/a): 0 (Growth control rates of less than 5% (substantially no effect))
- herbicidal effect, W (Triticum vulgare) ([7]; application amount 3.2 g/a): 0 (Growth control rates of less than 5% (substantially no effect))
- herbicidal effect, W (Triticum vulgare) ([7]; application amount 6.3 g/a): 0 (Growth control rates of less than 5% (substantially no effect))
- herbicidal effect, R (Oryza sativa) (rice (Oryza sativa); application amount 1.6 g/a): 0 (Growth control rates of less than 5% (substantially no effect))
- herbicidal effect, R (Oryza sativa) (rice (Oryza sativa); application amount 3.2 g/a): 0 (Growth control rates of less than 5% (substantially no effect))
- herbicidal effect, R (Oryza sativa) (rice (Oryza sativa); application amount 6.3 g/a): 0 (Growth control rates of less than 5% (substantially no effect))
